Data on 15 substances can be found in patent US11814680B2, “Biomarkers for detecting senescent cells” (Universität für Bodenkultur Wien, priority 2017, dated 2023).

Marks after values point to notes of the source that are not given here.

Data set [1] has as its system p16-3MR mice. Kind of data set: ROC analysis of discriminatory power of circulating microRNAs. Type of data set: in vivo, mouse. Particulars: serum, RT-qPCR, symbol after the number = significance; for ROC Analysis AUC Senescence: DOX vs PBS; for ROC Analysis AUC Senolytic Treatment: DOX/GCV vs DOX. As for the experimental part: (§1) Statistical analysis was performed using Medcalc (version 18.2.1). Normal distribution was assessed using D'Agostino-Pearson test, where normality was accepted at p>0.05. One-way ANOVA together together with Student-Newman-Keuls test for all pairwise comparisons (post-hoc tests) was used to identify significant changes between groups (p<0.05). To assess the discriminatory power of individual microRNAs, receiver operating characteristic (ROC) analysis was applied. ROC curves were plotted using sensitivity (y-axis) and 1-specificity (x-axis) and the area under the ROC curve (AUC) was calculated. MicroRNAs with AUC-values of >0.7 were considered as good discriminators/biomarkers. MicroRNAs with AUC-values >0.8 were considered very good discriminators/biomarkers.
In order to assess the diagnostic power of circulating microRNAs for the exposure with senescence inducing substances (DOX) as well as the efficacy of senolytic treatment, ROC analysis was performed and the area-under-the-curve (AUC) was calculated. […] Table 23 below summarizes AUC values as well as 95% confidence intervals for 24 selected circulating microRNAs.
Background: In qPCR the cycle at which signal appears reflects the starting amount.

For data set [2], the system named is p16-3MR mice. In words: RT-qPCR verification of serum circulating microRNA changes, one-way ANOVA. Type of data set: in vivo, mouse. Particulars: for change of serum level following senolytic treatment (DOX/GCV compared to DOX): p<0.05, in words; for One-way ANOVA Senolytic Treatment (DOX/GCV) / One-way ANOVA Senescence (DOX vs PBS): serum; for One-way ANOVA Senolytic Treatment (DOX/GCV): DOX/GCV compared to DOX; for One-way ANOVA Senescence (DOX vs PBS): n=8 per group, male and female mice; for regulation in serum after exposure to DOX compared to PBS: independent of gender, in words. As for the experimental part:
p16-3MR (Demaria et al, 2014, Developmental Cell 31:722-733) mice were bred in house and maintained in the AALAC-accredited Buck Institute for Research on Aging (Novato, Calif.) animal facility. 10 to 12-week-old p16-3MR […] mice were used for experiments. Mice were divided in 4 groups and each group consisted of 8 animals, 5 female, and 3 male, respectively. In group A, control mice were injected with PBS. In group B, mice were treated with Ganciclovir (GCV) (Sigma-Aldrich) dissolved in PBS for 5 consecutive days. In group C, mice were treated with one dose of Doxorubicine hydrochloride (Sigma-Aldrich) dissolved in PBS. In group D, mice were first treated with Doxorubicine and then treated 10 days later with GCV. Mice were intraperitoneally injected with one dose of 10 mg/kg of Doxorubicine hydrochloride, and GCV was administered daily by intraperitoneal injections for 5 consecutive days at concentration of 25 mg/kg in PBS. 4 days after the last GCV dose, animals were euthanized with CO2 and blood was withdrawn immediately. Blood was then incubated for 30 min at room temperature and centrifuged at 3400×g for 10 min. Serum was carefully collected in a sterile tube without disturbing the cell pellet and stored at −80° C. for further experiments.
Total RNA extraction was performed from 200 μl of serum using the Qiagen miRNeasy extraction kit (Qiagen, Germany). RNA yield was quality checked for homogenous extraction efficiency and hemolysis on the basis qPCR amplification of spiked-in as well as hemolysis-responsive RNAs (Blondal et al). In total 2 μl total RNA were used for reverse transcription using the Exiqon Universal RT kit II (Exiqon, Denmark). The obtained cDNA samples were pre-diluted 1:40 and subsequently mixed with SYBR Green® Mix (Exiqon, Denmark) to achieve a 1:100 dilution. The mix was distributed to primer-coated 384-well plates containing dried primer pairs for 96 selected microRNA or quality control assays. QPCR amplification was performed on a Roche LightCycler 480 II, using the manufacturer's recommendation for annealing, extension and denaturation.
Raw Cq-values were computed using the 2nd derivative method. Melting curves were checked for peaks to ensure specificity of the amplification reactions. Cq-values were subsequently normalized using Spike-In controls as references, to reduce technical noise in the data.
as §1

Data set [3] relates to p16-3MR mice. Kind of data set: Pearson correlation of serum miRNA levels to miR-34a-5p and miR-27a-3p. Particulars: for Pearson Correlcation coefficient miR44a-5p: correlation of serum level to miR44a-5p (so in the source); for Pearson Correlcation coefficient miR-27a-3p: correlation of serum level to miR-27a-3p. The arrangement: species or system mouse. The text has this: In order to extend these finding to potential additional miRNAs, we performed Pearson correlation to miR-34a-5p and miR-27a-3p, resulting in additional potential biomarkers (Table 18).

On to “miR-23b-3p: circulating microRNA biomarker, SEQ ID No. 47 (AUCACAUUGCCAGGGAUUACC; expressed or natural sequence; listed as Homo sapiens)”, for which, in data set [1], the “ROC Analysis AUC Senescence” value amounted to 0.563° and the “ROC Analysis AUC Senolytic Treatment” value was 0.875*. Also, in data set [2], the “change of serum level following senolytic treatment (DOX/GCV compared to DOX)” value (“change … (DOX/GCV compared to DOX)” below) was “significantly changed”, the “One-way ANOVA Senolytic Treatment (DOX/GCV)” value is given as “* (significant p < 0.05)” and the “One-way ANOVA Senescence (DOX vs PBS)” value is on record as “○”.
For “miR-31-5p: circulating microRNA biomarker, SEQ ID No. 87 (AGGCAAGAUGCUGGCAUAGCU; expressed or natural sequence; listed as Homo sapiens)”, in that order: 0.688+, 0.672°, “significantly changed”, “○” and “+ (by trend p < 0.2)”.
With “miR-34a-3p: circulating microRNA biomarker, SEQ ID No. 59 (CAAUCAGCAAGUAUACUGCCCU; expressed or natural sequence; listed as Homo sapiens)”, in data set [1], the “ROC Analysis AUC Senescence” value is 0.953* and the “ROC Analysis AUC Senolytic Treatment” value is listed as 0.5°. Also, in data set [2], the “regulation in serum after exposure to DOX compared to PBS” value (“regulation in serum … compared to PBS” below) is “significantly (up- or down-regulated)”, the “One-way ANOVA Senolytic Treatment (DOX/GCV)” value is recorded as “○” and the “One-way ANOVA Senescence (DOX vs PBS)” value is “* (significant p < 0.05)”.
Regarding “miR-125a-5p: circulating microRNA biomarker, SEQ ID No. 90 (UCCCUGAGACCCUUUAACCUGUGA; expressed or natural sequence; listed as Homo sapiens)”, in data set [1], the “ROC Analysis AUC Senescence” value is on record as 0.742+ and the “ROC Analysis AUC Senolytic Treatment” value is 0.789*. In data set [2], the “change … (DOX/GCV compared to DOX)” value is listed as “significantly changed”, the “One-way ANOVA Senolytic Treatment (DOX/GCV)” value was “* (significant p < 0.05)” and the “One-way ANOVA Senescence (DOX vs PBS)” value is recorded as “+ (by trend p < 0.2)”.
For “miR-181b-5p: circulating microRNA biomarker, SEQ ID No. 84 (AACAUUCAUUGCUGUCGGUGGGU; expressed or natural sequence; listed as Homo sapiens)”, in that order: 0.680+, 0.75+, “significantly changed”, “+ (by trend p < 0.2)” and “+ (by trend p < 0.2)”.
For “miR-183-3p: circulating microRNA biomarker, SEQ ID No. 85 (GUGAAUUACCGAAGGGCCAUAA; expressed or natural sequence; listed as Homo sapiens)”, in that order: 0.563°, 0.891*, “significantly changed”, “* (significant p < 0.05)” and “○”.
Take “miR-199a-5p: circulating microRNA biomarker, SEQ ID No. 81 (CCCAGUGUUCAGACUACCUGUUC; expressed or natural sequence; listed as Homo sapiens)”: in data set [1], the “ROC Analysis AUC Senescence” value is 0.906* and the “ROC Analysis AUC Senolytic Treatment” value is recorded as 0.781*. Also, in data set [2], the “regulation in serum … compared to PBS” value is on record as “significantly (up- or down-regulated)”, the “One-way ANOVA Senolytic Treatment (DOX/GCV)” value is reported as “+ (by trend p < 0.2)” and the “One-way ANOVA Senescence (DOX vs PBS)” value was “* (significant p < 0.05)”.
For “miR-199b-5p: circulating microRNA biomarker, SEQ ID No. 82 (CCCAGUGUUUAGACUAUCUGUUC; expressed or natural sequence; listed as Homo sapiens)”, in that order: 0.750+, 0.734+, “significantly (up- or down-regulated)”, “+ (by trend p < 0.2)” and “* (significant p < 0.05)”.
Take “miR-215-5p: circulating microRNA biomarker, SEQ ID No. 86 (AUGACCUAUGAAUUGACAGAC; expressed or natural sequence; listed as Homo sapiens)”: in data set [1], the “ROC Analysis AUC Senescence” value was 0.531° and the “ROC Analysis AUC Senolytic Treatment” value is on record as 0.922*. In data set [2], the “change … (DOX/GCV compared to DOX)” value is “significantly changed”, the “One-way ANOVA Senolytic Treatment (DOX/GCV)” value is on record as “* (significant p < 0.05)” and the “One-way ANOVA Senescence (DOX vs PBS)” value is recorded as “○”.
In the case of “miR-345-5p: circulating microRNA biomarker, SEQ ID No. 83 (GCUGACUCCUAGUCCAGGGCUC; expressed or natural sequence; listed as Homo sapiens)”, in data set [1], the “ROC Analysis AUC Senescence” value is 0.781* and the “ROC Analysis AUC Senolytic Treatment” value is 0.875*. In data set [2], the “regulation in serum … compared to PBS” value was “significantly (up- or down-regulated)”, the “One-way ANOVA Senolytic Treatment (DOX/GCV)” value is given as “* (significant p < 0.05)” and the “One-way ANOVA Senescence (DOX vs PBS)” value is “* (significant p < 0.05)”.
“miR-375-5p: circulating microRNA biomarker, SEQ ID No. 88 (UUUGUUCGUUCGGCUCGCGUGA; expressed or natural sequence; listed as Homo sapiens)”: in data set [1], the “ROC Analysis AUC Senescence” value came to 0.570° and the “ROC Analysis AUC Senolytic Treatment” value was 0.859*. For the same substance, in data set [2], the “change … (DOX/GCV compared to DOX)” value is on record as “significantly changed”, the “One-way ANOVA Senolytic Treatment (DOX/GCV)” value is reported as “* (significant p < 0.05)” and the “One-way ANOVA Senescence (DOX vs PBS)” value was “○”.
For “miR-409-3p: circulating microRNA biomarker, SEQ ID No. 89 (GAAUGUUGCUCGGUGAACCCCU; expressed or natural sequence; listed as Homo sapiens)”, in that order: 0.609°, 0.859*, “significantly changed”, “* (significant p < 0.05)” and “○”.
For “miR-483-5p: circulating microRNA biomarker, SEQ ID No. 91 (AAGACGGGAGGAAAGAAGGGAG; expressed or natural sequence; listed as Homo sapiens)”, in that order: 0.563°, 0.766*, “significantly changed”, “* (significant p < 0.05)” and “○”.
Regarding “mmu-miR-10a-3p: circulating microRNA, SEQ ID No. 16 (CAAAUUCGUAUCUAGGGGAAUA; expressed or natural sequence; listed as Homo sapiens)”, in data set [3], the “Pearson Correlcation coefficient miR44a-5p” value worked out at 0.52 and the “Pearson Correlcation coefficient miR-27a-3p” value was found to be 0.90.
With “mmu-miR-29a-3p: circulating microRNA, SEQ ID No. 22 (UAGCACCAUCUGAAAUCGGUUA; expressed or natural sequence; listed as Homo sapiens)”, in data set [3], the “Pearson Correlcation coefficient miR44a-5p” value is listed as 0.74 and the “Pearson Correlcation coefficient miR-27a-3p” value is reported as 0.74.
